From publication PMC10643130, “Molecular basis for selective uptake and elimination of organic anions in the kidney by OAT1” (Nature Structural & Molecular Biology, 2023)
Values joined by “and” are separate entries in the source; they are usually repeats but may differ in a detail not shown here. Equal entries are not always repeated.

Key:
[1] = biological target: T1, HsOAT1 truncation (lacks last 10 amino acids) (Homo sapiens, UniProt Q4U2R8); experiment: Cell-based 6-CF transport assay, truncated HsOAT1 lacking the last 10 amino acids; settings: Truncation (+P), 0.1 mM pemetrexed
T1 construct: expressed in transfected cells; host or cells: HeLa
T1 sequence (Q4U2R8 1-552 limits assumed): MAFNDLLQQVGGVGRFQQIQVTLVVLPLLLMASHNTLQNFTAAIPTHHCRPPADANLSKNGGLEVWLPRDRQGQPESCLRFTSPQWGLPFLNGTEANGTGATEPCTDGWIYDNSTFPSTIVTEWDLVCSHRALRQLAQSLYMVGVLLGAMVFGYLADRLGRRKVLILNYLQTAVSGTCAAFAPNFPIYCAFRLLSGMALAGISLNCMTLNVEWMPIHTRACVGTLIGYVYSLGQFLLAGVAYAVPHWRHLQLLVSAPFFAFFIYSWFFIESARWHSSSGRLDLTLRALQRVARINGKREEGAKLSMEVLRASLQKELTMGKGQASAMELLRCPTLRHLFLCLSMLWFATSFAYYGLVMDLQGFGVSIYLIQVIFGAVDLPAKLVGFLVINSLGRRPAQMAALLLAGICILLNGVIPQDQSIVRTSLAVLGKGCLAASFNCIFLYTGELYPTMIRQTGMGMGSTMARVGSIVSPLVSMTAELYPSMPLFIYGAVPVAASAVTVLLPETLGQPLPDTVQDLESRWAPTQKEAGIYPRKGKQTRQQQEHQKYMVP

[2] = biological target: T2, wild-type human OAT1 (HsOAT1) (Homo sapiens, UniProt Q4U2R8); experiment: Cell-based 6-CF transport assay, wild-type HsOAT1 in HeLa cells; settings: for 6-CF uptake, MEAN: WT (+P), 0.1 mM pemetrexed; for 6-CF transport in presence of dicarboxylate, single experiments: dicarboxylate 0.5 mM, 8 minutes, n = 8; for effect on OAT1 transport: 10 mM sodium phosphate
T2 sequence (Q4U2R8 1-563): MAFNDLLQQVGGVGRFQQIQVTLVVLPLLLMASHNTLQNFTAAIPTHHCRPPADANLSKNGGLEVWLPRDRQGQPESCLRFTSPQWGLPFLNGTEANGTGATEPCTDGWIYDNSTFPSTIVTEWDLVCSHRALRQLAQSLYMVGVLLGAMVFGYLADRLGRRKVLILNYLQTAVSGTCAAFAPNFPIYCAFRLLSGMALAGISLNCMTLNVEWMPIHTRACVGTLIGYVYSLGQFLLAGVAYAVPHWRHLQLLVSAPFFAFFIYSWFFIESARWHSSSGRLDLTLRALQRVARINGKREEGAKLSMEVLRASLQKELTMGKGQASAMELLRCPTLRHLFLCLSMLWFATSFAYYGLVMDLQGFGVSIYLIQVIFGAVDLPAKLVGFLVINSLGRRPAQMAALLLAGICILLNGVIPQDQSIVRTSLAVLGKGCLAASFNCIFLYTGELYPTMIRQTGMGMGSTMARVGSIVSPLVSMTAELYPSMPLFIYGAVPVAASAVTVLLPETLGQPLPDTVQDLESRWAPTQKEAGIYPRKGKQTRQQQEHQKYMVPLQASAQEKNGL
Experimental: To assay HsOAT1 transporter activity the model substrate 6-carboxyfluorescein (6-CF)[46],[47]
For transport assays, 1 × 10^5 cells per well were seeded into 24-well plates and 24 h later transfected using FUGENE HD (Promega E2311) Transfection Reagent (0.4 μg DNA per 1 μl of FUGENE per well) with HsOAT1 constructs containing a C-terminal FLAG tag in the vector pCDNA3.1 for 36 h. Expression of each mutant of HsOAT1 was assessed through western blotting on membrane fractions using an anti-FLAG antibody 1:3,000 dilution (Merck F1804), using a loading control of anti-β-actin 1:5,000 dilution (Merck A2228) (Extended Data Fig. 4). […] Background fluorescence was subtracted from cells transfected with the empty plasmid, and the data were normalized to 100%. To assess the activity of HsOAT1 in the presence and absence of chloride, the buffer was 120 mM NaCl, 28 mM glucose and 25 mM HEPES, pH 7.2 or for chloride-free conditions, and 120 mM sodium gluconate was used. […] To study the effect of ligands or inhibitors, the compound of interest was added to the assay buffer at the desired concentration. […] Each concentration was repeated three times to calculate standard errors, and the whole experiment was repeated three times to calculate the mean IC50 and standard error.

[3] = biological target: T3, RnOat1 (Rattus norvegicus, UniProt O35956); experiment: Sybody binding by biolayer interferometry; parameters: unit not given here
T3 construct: made in house; host or cells: Sf9 insect cells (baculovirus)
T3 sequence (O35956 1-551): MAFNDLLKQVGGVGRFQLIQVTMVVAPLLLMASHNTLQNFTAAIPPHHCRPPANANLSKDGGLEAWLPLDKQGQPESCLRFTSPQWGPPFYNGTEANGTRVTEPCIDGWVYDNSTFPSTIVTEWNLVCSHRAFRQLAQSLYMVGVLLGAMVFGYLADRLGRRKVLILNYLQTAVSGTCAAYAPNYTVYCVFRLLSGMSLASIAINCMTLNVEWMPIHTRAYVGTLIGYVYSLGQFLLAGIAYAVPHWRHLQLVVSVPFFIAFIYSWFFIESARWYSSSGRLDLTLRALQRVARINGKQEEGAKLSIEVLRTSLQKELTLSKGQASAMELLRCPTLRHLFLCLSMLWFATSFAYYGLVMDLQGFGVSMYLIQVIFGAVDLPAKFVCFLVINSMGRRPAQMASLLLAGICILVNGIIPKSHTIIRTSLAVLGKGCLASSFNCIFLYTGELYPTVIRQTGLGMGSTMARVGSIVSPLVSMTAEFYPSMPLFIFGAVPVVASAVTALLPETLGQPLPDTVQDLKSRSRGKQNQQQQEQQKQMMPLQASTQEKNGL
Experimental: Sybody selection was performed against C-terminally Avi-Flag-tagged and biotinylated RnOat1 using methods described previously in ref. [48]. A high-affinity sybody with a slow off rate, as measured using biolayer interferometry (Octet Red 384), was identified from the concave library. The sybody was cloned and expressed as a C-terminally MycHis tagged construct from the pSB-init vector (Addgene no. 110100), (pSB_Syb25 Addgene no. 197992).

[4] = biological target: T4, Biotinylated RnOat1 with a C-terminal Avi-tag followed by a FLAG tag (Rattus norvegicus, UniProt O35956, biotin (on the Avi-tag, by GST-BirA)); experiment: BLI; Octet Red 384; who was immobilised and the buffer are not told; n = 4 independent experiments; settings: both partners purified
T4 construct: Organic anion transporter 1 (Oat1, Slc22a6) of Rattus norvegicus; Used for the sybody selection; The host is likely Sf9 as for the structural construct (surmise); also called C-terminally Avi-Flag-tagged and biotinylated RnOat1; not shown: Avi-tag, C-terminal, kept

Molecule: Nc1nc2[nH]cc(CCc3ccc(C(=O)N[C@@H](CCC(=O)O)C(=O)O)cc3)c2c(=O)[nH]1 [pemetrexed]
- 6-CF uptake, MEAN ([1]; 1 min): 19.52
- 6-CF uptake, MEAN ([1]; 5 min): 17.65
- 6-CF uptake, MEAN ([1]; 8 min): 16.52
- 6-CF uptake, MEAN ([1]; 10 min): 12.32
- inhibition of 6-CF uptake ([2]; 0.1 mM in assay buffer): fully inhibited
- substrate quality in 6-CF assay ([2]; 0.5 mM, uptake after 8 minutes, similar to literature ref 20): poor substrates
- 6-CF uptake, MEAN ([2]; 1 min): 22
- 6-CF uptake, MEAN ([2]; 5 min): 18.75
- 6-CF uptake, MEAN ([2]; 8 min): 24.75
- 6-CF uptake, MEAN ([2]; 10 min): 17.25
- 6-CF uptake in presence of substrate, single experiments ([2]; substrate 0.5 mM, uptake after 8 minutes): 71%

Molecule: O=C(O)CCCCCC(=O)O [pimelate]
- 6-CF transport in presence of dicarboxylate, single experiments [2]: 18.1607% and 12.7635% and 14.6181% and 17.3198% and 16.4606% and 11.6692%

Molecule: O=C(O)CCC(=O)O [succinate]
- 6-CF transport in presence of dicarboxylate, single experiments [2]: 62.6553% and 71.4816% and 66.0745% and 69.225% and 69.843% and 74.8162% and 55.8733% and 76.8934%

Molecule: O=P(O)(O)O [phosphate, sodium phosphate]
- effect on OAT1 transport [2]: no impact
- effect on OAT1 transport ([2]; listed as sodium phosphate): no effect

B1: Sybody (synthetic nanobody) against RnOat1, Syb25 (VHH)
VHH: QVQLVESGGGLVQAGGSLRLSCAASGFPVKTEWMEWYRQAPGKEREWVAAIWSYGSGTRYADSVKGRFTISRDNAKNTVYLQMNSLKPEDTAVYYCLVRVGSWYHGQGTQVTVSA
notes: selected from the concave sybody library; source: expressed from the pSB-init vector
- binding response (ED Fig 3e source data) ([3]; Conc. 7.81 nM): 0.004
- binding response (ED Fig 3e source data) ([3]; Conc. 15.625 nM): 0.0165
- binding response (ED Fig 3e source data) ([3]; Conc. 31.25 nM): 0.04633
- binding response (ED Fig 3e source data) ([3]; Conc. 62.5 nM): 0.1353
- binding response (ED Fig 3e source data) ([3]; Conc. 250 nM): 0.201
- binding response (ED Fig 3e source data) ([3]; Conc. 500 nM): 0.2162
- binding response (ED Fig 3e source data) ([3]; Conc. 1000 nM): 0.2225
- binding response (ED Fig 3e source data) ([3]; Conc. 2000 nM): 0.23
- Kd [4]: 75 nM
